Test results: paper PMC7914897, “Cytotoxic Potential of a-Azepano- and 3-Amino-3,4-SeCo-Triterpenoids” (International Journal of Molecular Sciences, 2021)

Assays:
[1] = test system: MDA-MB-468 (Breast cancer); experiment: cells; conditions: Homo sapiens
SK-MEL-28 (Melanoma) = experiment: NCI-60 screen (SRB, 48 h); conditions: Homo sapiens, SK-MEL-28
Colon Cancer subpanel = experiment: NCI-60 screen, subpanel; conditions: Homo sapiens
[2] = test system: NCI-H23 (NSC lung cancer); experiment: NCI-60 screen (SRB, 48 h); conditions: Homo sapiens, NCI-H23
SK-MEL-5 (Melanoma) = experiment: NCI-60 screen (SRB, 48 h); conditions: Homo sapiens
TK-10 (Renal cancer) = experiment: NCI-60 screen (SRB, 48 h); conditions: Homo sapiens
HS 578T (Breast cancer) = experiment: NCI-60 screen (SRB, 48 h); conditions: Homo sapiens
U251 (CNS cancer) = experiment: NCI-60 screen (SRB, 48 h); conditions: Homo sapiens, U-251
SF-268 (CNS cancer) = experiment: NCI-60 screen (SRB, 48 h); conditions: Homo sapiens
Breast cancer subpanel = experiment: NCI-60 screen, subpanel; conditions: Homo sapiens
OVCAR-4 (Ovarian cancer) = experiment: NCI-60 screen (SRB, 48 h); type: cell-based; conditions: Homo sapiens
SF-539 (CNS cancer) = experiment: NCI-60 screen (SRB, 48 h); conditions: Homo sapiens, SF-539
OVCAR-3 (Ovarian cancer) = experiment: cells; conditions: Homo sapiens, OVCAR-3
BT-549 (Breast cancer) = experiment: NCI-60 screen (SRB, 48 h); type: cell-based; conditions: Homo sapiens
MDA-MB-435 (Melanoma) = experiment: NCI-60 screen (SRB, 48 h); type: cell-based; conditions: Homo sapiens
[3] = test system: NCI/ADR-RES (Ovarian cancer); experiment: NCI-60 screen (SRB, 48 h); conditions: Homo sapiens
HOP-62 (NSC lung cancer) = experiment: NCI-60 screen (SRB, 48 h); conditions: Homo sapiens
HT29 (Colon cancer) = experiment: NCI-60 screen (SRB, 48 h); conditions: Homo sapiens
OVCAR-8 (Ovarian cancer) = experiment: NCI-60 screen (SRB, 48 h); conditions: Homo sapiens
[4] = test system: NCI-H460 (NSC lung cancer); experiment: NCI-60 screen (SRB, 48 h); conditions: Homo sapiens, NCI-H460
DU-145 (Prostate cancer) = experiment: NCI-60 screen (SRB, 48 h); conditions: Homo sapiens
MOLT-4 (Leukemia) = experiment: NCI-60 screen (SRB, 48 h); conditions: Homo sapiens
Ovarian Cancer subpanel = experiment: NCI-60 screen, subpanel; conditions: Homo sapiens
LOX IMVI (Melanoma) = experiment: NCI-60 screen (SRB, 48 h); type: cell-based; conditions: Homo sapiens
Leukemia subpanel = experiment: cells; conditions: Homo sapiens

C=C(C)[C@@H]1CC[C@]2(COS(=O)(=O)c3ccc(C)cc3)CC[C@]3(C)[C@@H](CC[C@@H]4[C@@]5(C)CCCNC(C)(C)[C@@H]5CC[C@]43C)[C@@H]12 [Compound 12] showed a GI50 ([1]; MDA-MB-468) of 1740 nM, an IC (TGI) ([1]; MDA-MB-468, 48 h, read-out: TGI) of 3330 nM and a GI50 (SK-MEL-28 (Melanoma)) of 2150 nM. It also gave an IC (TGI) (Colon Cancer subpanel; 48 h, read-out: TGI MG_MID) of 3370 nM, a GI50 (Colon Cancer subpanel; read-out: GI50 MG_MID) of 1730 nM and a GI50 [2] of 1750 nM. It also gave a GI50 (SK-MEL-5 (Melanoma); SK-MEL-5) of 1670 nM, an IC (TGI) (SK-MEL-5 (Melanoma); SK-MEL-5, 48 h, read-out: TGI) of 3080 nM and a GI50 (TK-10 (Renal cancer); TK-10) of 1660 nM. For the same compound, the IC (TGI) (TK-10 (Renal cancer); TK-10, 48 h, read-out: TGI) was 3230 nM, the GI50 (HS 578T (Breast cancer)) was 1790 nM and the IC (TGI) (HS 578T (Breast cancer); 48 h, read-out: TGI) was 3940 nM. The GI50 (U251 (CNS cancer)) was 1750 nM, the GI50 (SF-268 (CNS cancer); SF-268) was 1880 nM and the IC (TGI) (SF-268 (CNS cancer); SF-268, 48 h, read-out: TGI) was 3790 nM. The IC (TGI) (Breast cancer subpanel; 48 h, read-out: TGI MG_MID) was 3500 nM, the GI50 (Breast cancer subpanel; read-out: GI50 MG_MID) was 1710 nM and the IC (TGI) (OVCAR-4 (Ovarian cancer); OVCAR-4, 48 h) was 3380 nM. The GI50 (OVCAR-4 (Ovarian cancer); OVCAR-4, read-out: GI50) was 1860 nM, the GI50 (SF-539 (CNS cancer)) was 1700 nM and the GI50 (OVCAR-3 (Ovarian cancer)) was 1670 nM. For the same compound, the GI50 (BT-549 (Breast cancer); BT-549) was 1840 nM, the IC (TGI) (BT-549 (Breast cancer); BT-549, 48 h) was 3560 nM and the IC (TGI) (MDA-MB-435 (Melanoma); MDA-MB-435, 48 h, read-out: TGI) was 3190 nM. The GI50 (MDA-MB-435 (Melanoma); MDA-MB-435, read-out: GI50) was 1730 nM, the GI50 [3] was 1740 nM and the GI50 (HOP-62 (NSC lung cancer); HOP-62) was 1650 nM. For the same compound, the IC (TGI) (HOP-62 (NSC lung cancer); HOP-62, 48 h, read-out: TGI) was 3130 nM, the GI50 (HT29 (Colon cancer); HT-29) was 1930 nM and the IC (TGI) (HT29 (Colon cancer); HT-29, 48 h, read-out: TGI) was 3500 nM. The GI50 (OVCAR-8 (Ovarian cancer); OVCAR-8) was 1910 nM, the IC (TGI) (OVCAR-8 (Ovarian cancer); OVCAR-8, 48 h, read-out: TGI) was 3650 nM and the GI50 [4] was 1680 nM. For the same compound, the GI50 (DU-145 (Prostate cancer); DU-145) was 1770 nM, the IC (TGI) (DU-145 (Prostate cancer); DU-145, 48 h, read-out: TGI) was 3300 nM and the GI50 (MOLT-4 (Leukemia); MOLT-4) was 1620 nM. The IC (TGI) (MOLT-4 (Leukemia); MOLT-4, 48 h, read-out: TGI) was 3590 nM, the IC (TGI) (Ovarian Cancer subpanel; 48 h, read-out: TGI MG_MID) was 3370 nM and the GI50 (Ovarian Cancer subpanel; read-out: GI50 MG_MID) was 1790 nM. It also gave a CC50 (Ovarian Cancer subpanel; read-out: LC50 MG_MID) of 5820 nM, an activity at 10 µM (LOX IMVI (Melanoma); 48 h, 1 dose 10 µM, read-out: Growth % of the Most Sensitive Cell Lines) of -86.5% and a GI50 (LOX IMVI (Melanoma); read-out: GI50) of 1720 nM. The IC (TGI) (Leukemia subpanel; 48 h, read-out: TGI MG_MID) was 4060 nM, the GI50 (Leukemia subpanel; read-out: GI50 MG_MID) was 1830 nM and the CC50 (Leukemia subpanel; read-out: LC50 MG_MID) was > 100000 nM.
